In article PMC6838683, “Discovery of Human Signaling Systems: Pairing Peptides to G Protein-Coupled Receptors” (Cell, 2019):

What was measured:
[1] = target: T1, GPR55 (Homo sapiens, UniProt Q9Y2T6); assay: Dynamic mass redistribution (DMR), concentration-response; format: cell-based; parameters: hIL-2Ra signal peptide (N); expressed in transfected cells; conditions: receptor GPR55; mean, SEM and n (2-4); read-out: DMR assays pEC50 (converted)
Description: (§1) 48 hr prior to parallel assaying, SNAP-tagged oGPCR cells were plated (10,000 cells/well) in fibronectin-coated 384-well Epic biosensor microplates (Corning) and poly-D-lysine coated white 384-well plates (for internalization assays). SNAP- GLP-1 receptor was plated alongside orphan receptor cells as an internal assay control for internalization assays. Receptor-expression was induced with 0.1 μg/ml doxycycline.
DMR assays provide a single integrated readout of ligand-dependent cellular response, utilizing an optical biosensor in specialized microplates to detect wavelength shifts of reflected light as it passes through the biosensor and the lower portion of the cell (∼150-200 nm). As a signal pathway agnostic approach, DMR assays are well-suited to the study of GPCRs ([Fang et al., 2008], [Schröder et al., 2011]). The mass redistribution response (Δ picometer (pm)) likely reflects a number of intracellular events, including cytoskeletal rearrangement, protein trafficking and receptor internalization. Orphan receptor-expressing cells were gently washed twice with assay buffer (HBSS with 1 mM CaCl2, 1 mM MgCl2, 20 mM HEPES, 0.01% pluronic F-68, pH 7.4) containing 0.1% DMSO and cells were equilibrated for 90 min at 22°C in the EPIC Benchtop (BT) System (Corning) to establish a stable DMR signal. After 3-5 min baseline recordings, peptides (10 μM) were added in duplicate wells using an electronic 384-channel Viaflo pipette (Integra Biosciences, Switzerland) and DMR responses were measured for 60 min at 22°C. 100 nM norepinephrine was included as an internal assay control to assess the cellular DMR response via endogenously-expressed adrenoceptors in the TREx 293 cells. Real-time data were processed using the BT to column converter MS-Excel macro (Corning) and analyzed in GraphPad Prism 7.0. DMR recordings in peptide screening experiments were buffer and solvent corrected and the area under the curve (AUC) was quantified. For subsequent validation experiments, peptides were diluted in assay buffer containing 0.1% DMSO and DMR assays were performed as above. […] Data represent mean ± standard error of the mean (SEM) from at least 3 biologically independent experiments.

[2] = target: T1, GPR55; assay: Real-time receptor internalization (TR-FRET), concentration-response; format: cell-based; parameters: hIL-2Ra signal peptide (N); expressed in transfected cells; conditions: receptor GPR55; mean, SEM and n (3-4); read-out: Internalization assays pEC50 (converted)
Description: as §1
A TR-FRET real-time internalization assay was used to examine peptide-dependent changes in orphan receptor localization as described previously ([Foster and Bräuner-Osborne, 2018]). Surface-expressed SNAP-tagged receptors were labeled with a cell-impermeable luminescent terbium cryptate (100 nM SNAP Lumi4-Tb; Cisbio, France) for 1 hr at 37°C. Cells were washed to remove excess terbium and incubated with fluorescein-O-acetic acid (100 μM; Sigma Aldrich) for 5 min at 37°C. Peptides were added as for DMR assays, and internalization responses were recorded for 60 min at 37°C using an EnVision 2104 Multimode plate reader (PerkinElmer). 100 nM GLP-1 was used as a positive control for SNAP-GLP1R internalization. Real-time internalization responses were calculated based on TR-FRET (excitation 340 nm; emission 520 nm and 615 nm), and were expressed as the ratio between donor (terbium) and acceptor (fluorescein) emission. For peptide screening analysis (both DMR and internalization assays), we calculated the area under the curve from the real-time traces. […] Validation experiments for receptor internalization were performed as above. Internalization data was processed in MS-Excel and area under the curve was used to generate concentration-response curves using GraphPad Prism 7.0. Data represent mean ± standard error of the mean (SEM) from at least 3 biologically independent experiments.

T1 sequence (Q9Y2T6 2-319 limits assumed): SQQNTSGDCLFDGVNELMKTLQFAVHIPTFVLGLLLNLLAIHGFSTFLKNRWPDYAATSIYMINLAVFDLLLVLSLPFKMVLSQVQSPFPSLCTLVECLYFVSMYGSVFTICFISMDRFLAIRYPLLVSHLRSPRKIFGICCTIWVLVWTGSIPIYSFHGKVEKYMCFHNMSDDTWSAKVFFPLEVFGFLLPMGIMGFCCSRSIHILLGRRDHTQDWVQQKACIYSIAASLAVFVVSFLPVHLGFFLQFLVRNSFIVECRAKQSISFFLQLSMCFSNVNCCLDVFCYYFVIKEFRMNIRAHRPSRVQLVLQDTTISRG

SMILES: CC[C@H](C)[C@H](NC(=O)CNC(=O)[C@H](CC(=O)O)NC(=O)[C@H](CO)NC(=O)[C@@H](N)Cc1c[nH]cn1)C(=O)N[C@@H](Cc1ccccc1)C(=O)N[C@H](C(=O)N[C@@H](CC(=O)O)C(=O)N[C@@H](CO)C(=O)N[C@@H](Cc1ccc(O)cc1)C(=O)N[C@@H](CO)C(=O)N[C@@H](CCCNC(=N)N)C(=O)N[C@@H](Cc1ccc(O)cc1)C(=O)N[C@@H](CCCNC(=N)N)C(=O)N[C@@H](CCCCN)C(=O)N[C@@H](CCC(N)=O)C(=O)N[C@@H](CCSC)C(=O)N[C@@H](C)C(=O)N[C@H](C(=O)N[C@@H](CCCCN)C(=O)N[C@@H](CCCCN)C(=O)N[C@@H](Cc1ccc(O)cc1)C(=O)N[C@@H](CC(C)C)C(=O)N[C@@H](C)C(=O)N[C@@H](C)C(=O)N[C@H](C(=O)N[C@@H](CC(C)C)C(=O)NCC(=O)N[C@@H](CCCCN)C(=O)N[C@@H](CCCNC(=N)N)C(=O)N[C@@H](Cc1ccc(O)cc1)C(=O)N[C@@H](CCCCN)C(=O)N[C@@H](CCC(N)=O)C(=O)N[C@@H](CCCNC(=N)N)C(=O)N[C@H](C(=O)N[C@@H](CCCCN)C(=O)N[C@@H](CC(N)=O)C(=O)N[C@@H](CCCCN)C(=O)NCC(=O)N[C@@H](CCCNC(=N)N)C(=O)N[C@@H](CCCNC(=N)N)C(=O)N[C@H](C(=O)N[C@@H](C)C(=O)N[C@@H](Cc1ccc(O)cc1)C(=O)N[C@@H](CC(C)C)C(=O)O)[C@@H](C)CC)C(C)C)C(C)C)C(C)C)[C@@H](C)O [Peptide 168.6]
- EC50 [1]: 331 nM
- EC50 [2]: 0.115 nM
